From the METLIN SMRT retention time set (Domingo-Almenara et al. 2019) come the findings set out here.

The data set is described as follows: gradient 5% acetonitrile 3 min, to 50% in 2 min, to 85% in 15 min, held 3 min, 100 µL/min. Particulars: column: Zorbax Extend-C18 2.1 x 50 mm; eluents: water / acetonitrile, 0.1% formic acid. The method, boiled down: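 A Zorbax Extend-C18 column (2.1 × 50 mm, 1.8 μm) run at 100 μL/min with water and acetonitrile, both containing 0.1% formic acid, separated mixtures of ~100 pure standards. The HPLC was coupled to a quadrupole time-of-flight mass spectrometer operated in positive and negative ionization mode, with dead and dwell volumes of 40 μL and 900 μL. Each retention time was taken from a computationally picked adduct peak that was then manually inspected.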
`Cc1ccn2cc(-c3ccc(NS(=O)(=O)c4cccc(Cl)c4)cc3)nc2n1` showed an RP-LC retention time of 679 s. In the case of `CC(C)NC(=O)c1ccc2c(c1)NC(=O)C1CCCCN21` (centres undefined) it was 692 s; in that of `Cn1cnnc1SCCNC(=O)Cc1csc(Nc2ncccn2)n1`, 564 s. Under `Cc1nn(C)c(C)c1CNC(=O)CN1C(=O)C2CCCCN2c2ccc(S(=O)(=O)N(C)C)cc21` (centres undefined) stands 693 s. Under `CCOC(=O)C1=C(CN(C)Cc2ccccc2)NC(=O)NC1c1ccc(F)cc1` (centres undefined) stands 663 s; under `Cc1noc(CNC(=O)C2CCN(S(=O)(=O)c3cccs3)CC2)n1`, 646 s; under `CCCCCn1c(=O)c2ccccc2n(Cc2nc(-c3ccc(OC)cc3)no2)c1=O`, 1210 s. With `Cc1cccc(Sc2nccnc2N2CCCC(C(=O)Nc3ccc(Br)cc3)C2)c1` (centres undefined), the RP-LC retention time was determined as 1290 s.

`CCC(=O)N1CCc2cc(N3CC(C(=O)NC4CC4)CC3=O)ccc21` (centres undefined): the RP-LC retention time worked out at 620 s. Under `O=C(CSc1nc(N2CCc3ccccc3C2)nc2ccccc12)NC1CCCCC1` stands 728 s.

As for `Fc1ccc(-c2nc(-c3ccc(-n4ccnc4)nc3)no2)cc1F`, the RP-LC retention time is 871 s. In the case of `Cc1noc(-c2cc(=O)n(CC(=O)Nc3ccccc3Cl)c3ccccc23)n1` it was 900 s; in that of `Cc1ccc(Cn2nc3ccc(S(=O)(=O)N4CCCCC4)cn3c2=O)cc1C`, 1020 s. In the case of `CCC1CCCCN1C(=O)c1cnc2nc(C)ccc2c1Nc1ccc(OC)cc1OC` (centres undefined) it was 667 s. Molecule `O=C(C1CCCN(c2nnc(N3CCCC3=O)s2)C1)N1CCN(c2ccccn2)CC1` (centres undefined) had an RP-LC retention time of 582 s. Under `CCC(Oc1ccc(=O)n(-c2ccc(F)cc2)n1)C(=O)NCCN1CCN(C)CC1` (centres undefined) stands 585 s.

For the molecule `c1csc(Cc2nc(-c3ccc4c(c3)ncn4CCN3CCCCC3)no2)c1`, the RP-LC retention time turned out to be 646 s. In the case of `C=CCNC(=O)c1nnc2n(c1=O)CCN2c1ccc(F)cc1` it was 622 s. Molecule `Cc1nc(-c2cc(S(=O)(=O)Nc3cc(F)ccc3F)c(C)s2)sc1C` gave an RP-LC retention time of 1100 s. Under `CCC(c1cccs1)N1C(=O)[C@H]2CN(S(=O)(=O)c3ccc(F)cc3F)C[C@H]2C1=O` (some centres undefined) stands 1000 s; under `CCn1cnnc1C1CCCCN1C(=O)CCc1c[nH]c2ccccc12` (centres undefined), 697 s; under `Fc1ccccc1-c1nc2ccn(Cc3ccc(-c4ccc(C(F)(F)F)cc4C(F)(F)F)nn3)cc-2n1`, 849 s. Molecule `CC(C)c1ccc(S(=O)(=O)N2CCc3c(c(CN4CCCC4)nn3C)C2)cc1` yielded an RP-LC retention time of 721 s. Under `Cc1cc(C(=O)N2CC(N(C(=O)NC(C)C)C3CCOCC3)C2)nn1C` stands 576 s. Under `COC(=O)C1=CN(c2cccc(C)c2)c2ccccc2S1(=O)=O` stands 849 s.

The molecule `CCN1CCN(CCNC(=O)C2CCCN(c3ncc(-c4cccc(F)c4)cn3)C2)CC1` (centres undefined) had an RP-LC retention time of 632 s. In the case of `O=C(c1ccsc1)N(CCc1ccccc1)Cc1ccccn1` it was 684 s; in that of `Cn1nccc1C(=O)N1CCC(NS(=O)(=O)c2ccc(Cl)cc2)CC1`, 704 s. Under `O=C(CN1C(=O)c2ccccc2C1=O)NCCS(=O)(=O)N1CCc2ccccc2C1` stands 744 s; under `COc1ccc(-c2noc(C3CCCN3C(=O)Nc3ccc(OC)cc3OC)n2)cc1` (centres undefined), 952 s; under `Cc1ccc(C)c(C(=O)NCc2ccc(-n3ccnc3)cc2)c1`, 630 s.

Regarding `Cn1nc(C(=O)N2CCOCC2)c2c1CCN(C(=O)Nc1ccccc1Br)C2`, the RP-LC retention time was determined as 674 s.

Take `Cc1c(Cl)cccc1NC(=O)Cn1nc2c3cc(F)ccc3ncn2c1=O`: the RP-LC retention time turned out to be 677 s. In the case of `COc1ccc(-c2nc(Cn3ccn4nc(-c5ccc(OC)c(OC)c5)cc4c3=O)c(C)o2)cc1` it was 968 s. Under `CC1Cc2ccccc2N1C(=O)C12CCC(C)(C(=O)O1)C2(C)C` (centres undefined) stands 1000 s. In the case of `COc1cccc(C(=O)Nc2nc(-c3ccc4c(c3)N(C)C(=O)CO4)c(C)s2)c1` it was 978 s.

As to `Cc1ccc(Nc2nc(C(=O)NCCc3c(C)noc3C)nc3ccccc23)cc1`, the RP-LC retention time amounted to 717 s.

`CCNC(=O)N1CC(c2nc(-c3cccnc3)no2)C2(CCOCC2)C1` (centres undefined) gave an RP-LC retention time of 597 s. Under `COc1cccc(Cn2cccc2-c2nc(-c3ccncc3)no2)c1` stands 1060 s; under `O=C(COc1ccc(Cl)cc1)N1C[C@H]2C[C@H](C1)[C@H]1CCCC(=O)N1C2`, 714 s. Turning to `CCCc1cc(N2CCN(C(=O)Cc3cccs3)CC2)nc2nnc(C)n12`, the RP-LC retention time turned out to be 620 s.

As for `COc1ccc(CCNC(=O)CSc2ncnc3c2nnn3C)cc1OC`, the RP-LC retention time was determined as 628 s. `CC(C)c1ccc(N2C(=O)C3N=NN(Cc4nc(-c5ccccc5Br)no4)C3C2=O)cc1` (centres undefined) returned an RP-LC retention time of 1140 s. Under `CS(=O)(=O)N1CCCC(C(=O)NC2CC2)CCNC(=O)CC1` (centres undefined) stands 816 s. On to `Fc1cccc2sc(NCc3ccccn3)nc12`, for which the RP-LC retention time is 594 s. In the case of `CCCNC(=O)C1CC(=O)N(CCc2c[nH]c3ccc(F)cc23)C1` (centres undefined) it was 684 s. In the case of `O=C(c1ccsc1)N1CCC2(CC1)NC(=O)N(Cc1cccc(Cl)c1)C2=O` it was 816 s; in that of `O=C1NCCCn2cc(S(=O)(=O)NCc3ccc4c(c3)OCO4)cc21`, 640 s.

Molecule `Cc1ccc(S(=O)(=O)N2CC(=O)N(c3ccc(F)cc3)C(C)(C(=O)NCc3ccccc3)C2)cc1` (centres undefined) came in with an RP-LC retention time of 968 s. As for `CCC(C)N(CCNC(=O)Cn1c(=O)oc2ccccc21)Cc1cccs1` (centres undefined), the RP-LC retention time worked out at 652 s. For `Cc1cccc(-c2noc(Cn3cnc4c(oc5ccccc54)c3=O)n2)c1`, the RP-LC retention time was 996 s. Under `Cc1ccc(Cl)cc1NS(=O)(=O)c1ccc(-c2c(C)noc2C)cc1` stands 1010 s; under `CS(=O)(=O)N1CCCc2cc(C(=O)NCc3ccccn3)ccc21`, 607 s. Under `Cc1c(C(=O)N2CCOCC2)cnn1-c1cc(-c2nc(C3CC3)no2)ccn1` stands 797 s; under `CCc1ccc(CNC(=O)C2CCN(C(=O)c3ncn4c3COC(c3ccc(F)cc3)C4)CC2)cc1` (centres undefined), 846 s. In the case of `CCn1c(C)c(CN2CCC(C(=O)NCc3ccc(C)cc3)CC2)c2ccccc21` it was 733 s; in that of `CCC(=O)Nc1ccc(OCc2cc(C(=O)NC3CCCC3)no2)cc1`, 740 s; in that of `Cc1ccc(NC(=O)N2CCC(c3nc(C(=O)N(C)C)c(C)o3)CC2)cc1`, 705 s. In turn, `CCN1C(=O)c2cccnc2Sc2cc(NC(=O)COc3cccc(C)c3)ccc21` gave an RP-LC retention time of 931 s.
